Assay results: the NIST ThermoML archive (doi:10.1021/je800046k)
Numbers after ± are expanded uncertainties.

Experiment: xn = mol fraction of the nth substance listed
Details: for surface tension liquid-gas: Pendant drop shape; for mass density: 101 kPa, Liquid

Compound `CC(=O)OCC(C)C` [2-methylpropyl ethanoate] + Cc1ccc(C)c(C)c1 has a surface tension liquid-gas (298.15 K, x1 = 0.0494) of 28.85 ± 0.33 mN/m, a surface tension liquid-gas (298.15 K, x1 = 0.0992) of 28.38 ± 0.32 mN/m and a surface tension liquid-gas (298.15 K, x1 = 0.1493) of 27.89 ± 0.32 mN/m. For the same compound, the surface tension liquid-gas (298.15 K, x1 = 0.2002) was 27.4 ± 0.32 mN/m, the surface tension liquid-gas (298.15 K, x1 = 0.2498) was 26.98 ± 0.32 mN/m and the surface tension liquid-gas (298.15 K, x1 = 0.2989) was 26.61 ± 0.32 mN/m. For the same compound, the surface tension liquid-gas (298.15 K, x1 = 0.3495) was 26.25 ± 0.32 mN/m, the surface tension liquid-gas (298.15 K, x1 = 0.3997) was 25.92 ± 0.32 mN/m and the surface tension liquid-gas (298.15 K, x1 = 0.4505) was 25.59 ± 0.32 mN/m. It also gave a surface tension liquid-gas (298.15 K, x1 = 0.4991) of 25.3 ± 0.33 mN/m, a surface tension liquid-gas (298.15 K, x1 = 0.5504) of 25.03 ± 0.33 mN/m and a surface tension liquid-gas (298.15 K, x1 = 0.6) of 24.78 ± 0.33 mN/m. For the same compound, the surface tension liquid-gas (298.15 K, x1 = 0.6496) was 24.54 ± 0.33 mN/m, the surface tension liquid-gas (298.15 K, x1 = 0.7006) was 24.32 ± 0.33 mN/m and the surface tension liquid-gas (298.15 K, x1 = 0.75) was 24.13 ± 0.33 mN/m. It also gave a surface tension liquid-gas (298.15 K, x1 = 0.8002) of 23.91 ± 0.34 mN/m, a surface tension liquid-gas (298.15 K, x1 = 0.8499) of 23.74 ± 0.34 mN/m and a surface tension liquid-gas (298.15 K, x1 = 0.9006) of 23.55 ± 0.34 mN/m. For the same compound, the surface tension liquid-gas (298.15 K, x1 = 0.9477) was 23.36 ± 0.34 mN/m, the surface tension liquid-gas (298.15 K, x1 = 1) was 23.15 ± 0.35 mN/m and the mass density (298.15 K, x1 = 0.0494) was 871.36 ± 0.56 kg/m3. For the same compound, the mass density (298.15 K, x1 = 0.0992) was 871.02 ± 0.58 kg/m3, the mass density (298.15 K, x1 = 0.1493) was 870.68 ± 0.61 kg/m3 and the mass density (298.15 K, x1 = 0.2002) was 870.35 ± 0.63 kg/m3. For the same compound, the mass density (298.15 K, x1 = 0.2498) was 870.03 ± 0.66 kg/m3, the mass density (298.15 K, x1 = 0.2989) was 869.71 ± 0.68 kg/m3 and the mass density (298.15 K, x1 = 0.3495) was 869.39 ± 0.71 kg/m3. For the same compound, the mass density (298.15 K, x1 = 0.3997) was 869.08 ± 0.74 kg/m3, the mass density (298.15 K, x1 = 0.4505) was 868.77 ± 0.77 kg/m3 and the mass density (298.15 K, x1 = 0.4991) was 868.48 ± 0.81 kg/m3. The mass density (298.15 K, x1 = 0.5504) was 868.19 ± 0.84 kg/m3, the mass density (298.15 K, x1 = 0.6) was 867.92 ± 0.88 kg/m3 and the mass density (298.15 K, x1 = 0.6496) was 867.65 ± 0.91 kg/m3. The mass density (298.15 K, x1 = 0.7006) was 867.37 ± 0.95 kg/m3, the mass density (298.15 K, x1 = 0.75) was 867.13 ± 0.99 kg/m3 and the mass density (298.15 K, x1 = 0.8002) was 866.88 ± 1 kg/m3. For the same compound, the mass density (298.15 K, x1 = 0.8499) was 866.67 ± 1.1 kg/m3, the mass density (298.15 K, x1 = 0.9006) was 866.45 ± 1.1 kg/m3 and the mass density (298.15 K, x1 = 0.9477) was 866.27 ± 1.2 kg/m3. For the same compound, the mass density (298.15 K, x1 = 1) was 866.06 ± 1.2 kg/m3, the surface tension liquid-gas (308.15 K, x1 = 0.0495) was 27.75 ± 0.32 mN/m and the surface tension liquid-gas (308.15 K, x1 = 0.0992) was 27.26 ± 0.31 mN/m. The surface tension liquid-gas (308.15 K, x1 = 0.149) was 26.78 ± 0.31 mN/m, the surface tension liquid-gas (308.15 K, x1 = 0.1998) was 26.31 ± 0.31 mN/m and the surface tension liquid-gas (308.15 K, x1 = 0.25) was 25.89 ± 0.31 mN/m. For the same compound, the surface tension liquid-gas (308.15 K, x1 = 0.2995) was 25.52 ± 0.31 mN/m, the surface tension liquid-gas (308.15 K, x1 = 0.3497) was 25.17 ± 0.31 mN/m and the surface tension liquid-gas (308.15 K, x1 = 0.4004) was 24.83 ± 0.31 mN/m. For the same compound, the surface tension liquid-gas (308.15 K, x1 = 0.4501) was 24.52 ± 0.31 mN/m, the surface tension liquid-gas (308.15 K, x1 = 0.4995) was 24.21 ± 0.31 mN/m and the surface tension liquid-gas (308.15 K, x1 = 0.5505) was 23.94 ± 0.32 mN/m. The surface tension liquid-gas (308.15 K, x1 = 0.5994) was 23.69 ± 0.32 mN/m, the surface tension liquid-gas (308.15 K, x1 = 0.65) was 23.48 ± 0.32 mN/m and the surface tension liquid-gas (308.15 K, x1 = 0.6987) was 23.25 ± 0.32 mN/m. The surface tension liquid-gas (308.15 K, x1 = 0.7505) was 23.04 ± 0.32 mN/m, the surface tension liquid-gas (308.15 K, x1 = 0.7986) was 22.82 ± 0.32 mN/m and the surface tension liquid-gas (308.15 K, x1 = 0.8497) was 22.67 ± 0.33 mN/m. For the same compound, the surface tension liquid-gas (308.15 K, x1 = 0.8999) was 22.48 ± 0.33 mN/m, the surface tension liquid-gas (308.15 K, x1 = 0.9491) was 22.32 ± 0.33 mN/m and the surface tension liquid-gas (308.15 K, x1 = 1) was 22.16 ± 0.33 mN/m. For the same compound, the mass density (308.15 K, x1 = 0.0495) was 863.22 ± 0.58 kg/m3, the mass density (308.15 K, x1 = 0.0992) was 862.76 ± 0.6 kg/m3 and the mass density (308.15 K, x1 = 0.149) was 862.3 ± 0.62 kg/m3. It also gave a mass density (308.15 K, x1 = 0.1998) of 861.84 ± 0.64 kg/m3, a mass density (308.15 K, x1 = 0.25) of 861.39 ± 0.67 kg/m3 and a mass density (308.15 K, x1 = 0.2995) of 860.95 ± 0.7 kg/m3. It also gave a mass density (308.15 K, x1 = 0.3497) of 860.51 ± 0.72 kg/m3, a mass density (308.15 K, x1 = 0.4004) of 860.07 ± 0.75 kg/m3 and a mass density (308.15 K, x1 = 0.4501) of 859.64 ± 0.78 kg/m3. For the same compound, the mass density (308.15 K, x1 = 0.4995) was 859.23 ± 0.82 kg/m3, the mass density (308.15 K, x1 = 0.5505) was 858.81 ± 0.85 kg/m3 and the mass density (308.15 K, x1 = 0.5994) was 858.42 ± 0.88 kg/m3. The mass density (308.15 K, x1 = 0.65) was 858.02 ± 0.92 kg/m3, the mass density (308.15 K, x1 = 0.6987) was 857.63 ± 0.96 kg/m3 and the mass density (308.15 K, x1 = 0.7505) was 857.25 ± 1 kg/m3. The mass density (308.15 K, x1 = 0.7986) was 856.89 ± 1 kg/m3, the mass density (308.15 K, x1 = 0.8497) was 856.54 ± 1.1 kg/m3 and the mass density (308.15 K, x1 = 0.8999) was 856.19 ± 1.1 kg/m3. The mass density (308.15 K, x1 = 0.9491) was 855.87 ± 1.2 kg/m3, the mass density (308.15 K, x1 = 1) was 855.51 ± 1.2 kg/m3 and the surface tension liquid-gas (313.15 K, x1 = 0.0506) was 27.18 ± 0.31 mN/m. The surface tension liquid-gas (313.15 K, x1 = 0.1002) was 26.67 ± 0.31 mN/m, the surface tension liquid-gas (313.15 K, x1 = 0.1499) was 26.15 ± 0.31 mN/m and the surface tension liquid-gas (313.15 K, x1 = 0.2001) was 25.7 ± 0.31 mN/m. It also gave a surface tension liquid-gas (313.15 K, x1 = 0.2505) of 25.28 ± 0.31 mN/m, a surface tension liquid-gas (313.15 K, x1 = 0.3001) of 24.91 ± 0.31 mN/m and a surface tension liquid-gas (313.15 K, x1 = 0.3502) of 24.59 ± 0.31 mN/m. It also gave a surface tension liquid-gas (313.15 K, x1 = 0.3995) of 24.26 ± 0.31 mN/m, a surface tension liquid-gas (313.15 K, x1 = 0.4501) of 23.95 ± 0.31 mN/m and a surface tension liquid-gas (313.15 K, x1 = 0.5001) of 23.62 ± 0.31 mN/m. For the same compound, the surface tension liquid-gas (313.15 K, x1 = 0.5503) was 23.36 ± 0.31 mN/m, the surface tension liquid-gas (313.15 K, x1 = 0.6007) was 23.08 ± 0.31 mN/m and the surface tension liquid-gas (313.15 K, x1 = 0.6492) was 22.9 ± 0.31 mN/m. For the same compound, the surface tension liquid-gas (313.15 K, x1 = 0.6997) was 22.65 ± 0.31 mN/m, the surface tension liquid-gas (313.15 K, x1 = 0.75) was 22.46 ± 0.32 mN/m and the surface tension liquid-gas (313.15 K, x1 = 0.801) was 22.2 ± 0.32 mN/m. It also gave a surface tension liquid-gas (313.15 K, x1 = 0.848) of 22.09 ± 0.32 mN/m, a surface tension liquid-gas (313.15 K, x1 = 0.8998) of 21.89 ± 0.32 mN/m and a surface tension liquid-gas (313.15 K, x1 = 0.9498) of 21.77 ± 0.32 mN/m. It also gave a surface tension liquid-gas (313.15 K, x1 = 1) of 21.64 ± 0.33 mN/m, a mass density (313.15 K, x1 = 0.0506) of 859.06 ± 0.58 kg/m3 and a mass density (313.15 K, x1 = 0.1002) of 858.55 ± 0.6 kg/m3. The mass density (313.15 K, x1 = 0.1499) was 858.03 ± 0.63 kg/m3, the mass density (313.15 K, x1 = 0.2001) was 857.52 ± 0.65 kg/m3 and the mass density (313.15 K, x1 = 0.2505) was 857 ± 0.68 kg/m3. The mass density (313.15 K, x1 = 0.3001) was 856.51 ± 0.7 kg/m3, the mass density (313.15 K, x1 = 0.3502) was 856.01 ± 0.73 kg/m3 and the mass density (313.15 K, x1 = 0.3995) was 855.53 ± 0.76 kg/m3. The mass density (313.15 K, x1 = 0.4501) was 855.03 ± 0.79 kg/m3, the mass density (313.15 K, x1 = 0.5001) was 854.56 ± 0.82 kg/m3 and the mass density (313.15 K, x1 = 0.5503) was 854.08 ± 0.86 kg/m3. The mass density (313.15 K, x1 = 0.6007) was 853.61 ± 0.89 kg/m3, the mass density (313.15 K, x1 = 0.6492) was 853.16 ± 0.93 kg/m3 and the mass density (313.15 K, x1 = 0.6997) was 852.71 ± 0.96 kg/m3. It also gave a mass density (313.15 K, x1 = 0.75) of 852.27 ± 1 kg/m3, a mass density (313.15 K, x1 = 0.801) of 851.82 ± 1 kg/m3 and a mass density (313.15 K, x1 = 0.848) of 851.43 ± 1.1 kg/m3. It also gave a mass density (313.15 K, x1 = 0.8998) of 851.01 ± 1.1 kg/m3, a mass density (313.15 K, x1 = 0.9498) of 850.6 ± 1.2 kg/m3 and a mass density (313.15 K, x1 = 1) of 850.16 ± 1.2 kg/m3.
